In patent publication US6407137B2, “Dopamine analog amide” (Protarga, Inc., priority 1988, dated 2002):
“And” between values parts separate entries of the source, which are not always exact repeats. Identical values can stand only once. “Also recorded” adds a separate entry of the source. Like-named read-outs stand apart in the source and are kept apart here.

Experiments:
[1] = Brain penetration index (BPI) determination, brain uptake relative to liver; format: in vivo, male balb C mice; conditions: for BPI Value (%): BPI=[brain]/[liver]x100, 5 minutes after s.c. injection; for crossing of the blood brain barrier (in words): variations of the carrier; for brain uptake / BPI relative to dopamine: compared with dopamine
Source text: A brain penetration index (BPI) determination was used as a criterion for measuring the capacity of a compound to cross the blood brain barrier. Shashoua, V. E., Jacob, J. N., Ridge, R., Campbell, A. and Baldessarini, R. J., J. Med. Chem. 27, 659 (1984). The BPI is a measure of the uptake of a compound by the brain relative to its uptake by the liver. The liver is chosen as a reference since it is an organ which has no barrier to diffusable molecules present in the blood. Moreover, even if subcutaneous injections are used, the injected material tends to remain largely at the site of the injection and slowly diffuse into the circulation. Therefore, the amount of material in the liver will reflect the amount available rather than the initial dose injected.
Measurements of the quantity of the drug present in the brain and liver were measured at five minutes after a subcutaneous injection and were used to calculate the BPI, the equation being: […]
For these measurements, compound 8739 was synthesized from ^14C-labeled dopamine. Thirty μCi of dopamine labeled hydrochloride was mixed with 0.1 mg of unlabeled dopamine hydrobromide and reacted with a two-fold excess of DHA anhydride. The reaction was run overnight; the product was then evaporated to dryness and dissolved in ethanol. The compound was identified as 8739 by its migration properties on thin-layer chromatography using chloroform:methanol as one solvent and dimethylformamide (DMF) as the other. The migration properties were equivalent to those of the unlabeled product.
^14C-labeled 8739 was dissolved in 15% propylene glycol in 0.1 M NaHCO3 and then injected subcutaneously (s.c.) into male balb C mice (20±2 g). After 5 minutes the animals were sacrificed by cervical fracture and the brain and liver were dissected out, weighed and homogenized in 8 and 10 ml of Brain Protein Solvent (BPS) buffer, respectively [BPS=2% sodium dodecyl sulfate in 0.03 M Tris, 6 M urea, pH 7.6, 0.01 M EDTA and 0.14 N NaCl]. Aliquots were then counted for ^14C content in 10 ml of a liquid scintillation fluid, Liquiscent (National Diagnostic Company, Somerville, N.J.) using a Beckman liquid scintillation counter. The ^14C counts were then used to calculate the total quantity of compound 8739 present in the brain per gram of tissue as compared to that in the liver. The ratio of the amount in the brain as a percent of that present in liver was determined.

[2] = Open-field motor activity measurement; format: in vivo, balb-c mice; conditions: for changes in open-field activity: administered at the same dose as compound 8739
Experimental: The effect of compound 8739 on general motor activity was determined. The general motor activity of balb-c mice was measured in a Stoelting electronic activity monitor apparatus during a 90-min period following an intraperitoneal injection of the compound as a solution in 15% propylene glycol in 0.1 M NaHCO3. A detailed description of the apparatus is reported in Stewart R. J., Campbell A., Spark G. and Balessarini R. J. Psychopharmacol. 60, 281 (1979).
The test group (six mice) received an i.p. injection of the drug in a vehicle (15% propylene glycol in 0.1 M NaHCO3, a total volume of between about […].). The six control mice received the same volume of vehicle, but no drug. The results (Shown in FIG. 1,) are expressed as the percent decrease in open field activity for the test group versus the control group. […] The response was dose dependant with higher doses of compound 8739 resulting in a greater decrease in general motor activity.
The effects of the mode of delivery of Compound 8739 (oral vs. i.p.) on the general open-field activity of mice (n=6) was assessed. […] A 40-50% decrease in activity occurred when either delivery method was employed.

[3] = animal tests, background; cited from earlier work
[4] = Circling behavior in rats with unilateral nigrostriatal lesions; format: in vivo; conditions: for AVERAGE ROTATION SCORES (Rotations/minutes) Contralateral / AVERAGE ROTATION SCORES (Rotations/minutes) Ipsilateral: 30-min period; for circling behavior (in words): rats with nigrostriatal lesions, i.p.
Experimental: Dopamine agonists such as apomorphine and amphetamine cause circling behavior in animals with nigrostriatal lesions.
Unilateral nigrostriatal lesions in rats were produced by administering unilateral injections of 6-OH dopamine into the nigrostriatum pathway. Seven days later, these animals were i.p. injected with the test drugs and circling behavior was recorded as rotations per minute during a 30-min period in the test apparatus, Ungerstedt U. and Arbathnott G. W., Brain Res. 24, 485-493 (1970).

[5] = Test for tolerance: food consumption during long-term administration; format: in vivo, mice; conditions: for tolerance: food intake
Experimental: The effect of long-term administration of compound 8739 on the pattern of food consumption of mice was compared to the long-term effects of the administration of amphetamine. Daily i.p. injections of compound 8739 (20 mg/kg) were given to test animals and daily i.p. injections of amphetamine (2 mg/kg) were given to control animals for 21 days. 24 hours after the first injection and about every five days after that, the animals were food-deprived for 24 hours with water freely available, and then were tested for food consumption for one-hour beginning at five minutes after receiving their daily injection.
FIG. 4 plots the percent decrease in food consumption versus time.

[6] = reported in the literature; cited from earlier work
[7] = previous reports, Chan and Fishman, SCIENCE (1978); cited from earlier work
[8] = Food consumption measurements; format: in vivo, balb-c mice; conditions: for activity as an appetite-suppressant (in words): variations of the carrier
Experimental: The effect of compound 8739 on food consumption was determined for balb-c mice that were food deprived for 24 hr, with water freely available. The six test mice were given an i.p. injection of compound 8739 as a solution in 15% propylene glycol in 0.1 M NaHCO3, a total volume of between about 0.1-0.3 ml. The six control mice received the same volume of vehicle, but no drug. The quantity of “mouse chow” eaten during the 60-min period following the injections was determined. The results, also shown in FIG. 1, are expressed as the percent decrease in food consumption for the test group versus the control group. […] The decrease was dose dependent, with higher doses of compound 8739 causing greater decrease in food intake. The same experiment was conducted using oral administration of compound 8739.

[9] = Test for tolerance: open field activity during daily injections; format: in vivo, mice; conditions: 20 mg/kg i.p. daily for 21 days
Experimental: The effects of daily i.p. injections of compound 8739 at a dose of 20 mg/kg on open field activity and food consumption was tested to determine whether tolerance to the drug was induced over time. The open field activity of six test mice and six control mice was monitored for five days. Then, the test mice were given i.p. injections of the drug in a vehicle and the control mice were given i.p. injections of the vehicle only. This regimen was carried out for a 21 day test period. At the end of the 21 days, the vehicle alone was given daily to both test and control mice and open field activity and food consumption was monitored for an additional six days.
FIG. 3 plots the percent decrease in open field activity of the test mice (n=6) as compared to the controls (n=6). […] Upon initation of injections, there was a 30% to 60% decrease in open field activity. […] Beginning at day 22 and daily until day 27, vehicle alone was given to both groups.

[10] = Self-stimulation test (electrodes in lateral hypothalamus); format: in vivo; conditions: rats
Source text: A self-stimulation test has been used to measure the capacity of a given pharmacological agent to inhibit rats from receiving self-induced electrical stimuli via electrodes implanted in their brains (lateral hypothalamus). Stellar J. R. and Stellar E., The Neurobiology of Motivation and Reward, Springer-Verlag, New York, 1985. Animals will press levers to receive a pulse of current from the implanted electrode at a rate dependent upon the quantity of current that is being delivered as a reward. […] R.). […] A plot of the log of the frequency of the delivered pulses vs. the rate of level press for an animal gives the self-stimulation reward curve. Injections of drugs which have a neuroleptic-type or tranquilizing effect can depress the rate of self-stimulation, shifting the response to higher current deliveries. Pemozide can give a depressed rate by about 90%. […] The animal continues to press the lever at the rate equivalent to a non-injected control or one receiving the vehicle alone.

D-1 dopamine receptors = experiment: Dopamine receptor binding assay (D-1)
Sequence of D-1 dopamine receptors (P21728 whole entry): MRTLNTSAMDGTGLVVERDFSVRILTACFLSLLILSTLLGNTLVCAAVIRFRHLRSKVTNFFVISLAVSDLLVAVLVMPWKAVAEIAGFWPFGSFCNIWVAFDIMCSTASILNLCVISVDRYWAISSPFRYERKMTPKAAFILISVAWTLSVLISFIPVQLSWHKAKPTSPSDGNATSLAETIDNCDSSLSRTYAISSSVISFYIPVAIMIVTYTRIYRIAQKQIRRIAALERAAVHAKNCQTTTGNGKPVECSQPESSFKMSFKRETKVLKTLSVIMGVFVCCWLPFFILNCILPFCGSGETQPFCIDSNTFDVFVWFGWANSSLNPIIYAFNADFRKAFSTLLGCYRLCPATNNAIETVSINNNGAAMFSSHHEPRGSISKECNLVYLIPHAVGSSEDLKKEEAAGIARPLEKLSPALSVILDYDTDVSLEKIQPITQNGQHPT

Swelling of the brain = experiment: Swelling of the brain
Source text: Another favorable property of compound 8739 was unexpected. […] Chan, P. H., Fishman, R. A., SCIENCE, Vol. 20, 358-360 (1978).

D-2 dopamine receptors = D-2 dopamine receptors (Homo sapiens, UniProt P14416); experiment: Dopamine receptor binding assay (D-2)
Sequence of D-2 dopamine receptors (P14416 whole entry): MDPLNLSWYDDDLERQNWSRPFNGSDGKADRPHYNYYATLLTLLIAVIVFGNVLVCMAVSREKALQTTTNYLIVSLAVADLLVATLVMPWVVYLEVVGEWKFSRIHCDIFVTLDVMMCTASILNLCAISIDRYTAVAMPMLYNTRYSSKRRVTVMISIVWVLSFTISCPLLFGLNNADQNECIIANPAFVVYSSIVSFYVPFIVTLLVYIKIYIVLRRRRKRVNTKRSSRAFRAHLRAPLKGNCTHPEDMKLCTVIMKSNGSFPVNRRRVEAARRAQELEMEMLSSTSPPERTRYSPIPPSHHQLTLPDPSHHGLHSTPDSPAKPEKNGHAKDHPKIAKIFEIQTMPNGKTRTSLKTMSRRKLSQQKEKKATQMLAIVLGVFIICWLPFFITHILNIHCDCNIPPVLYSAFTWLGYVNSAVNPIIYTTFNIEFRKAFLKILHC

[11] = in vivo
Source text: Many of the undesirable side effects of amphetamines were absent. […] Failure to induce tolerance was unexpected.

[12] = Pattern of distribution of 14C-labeled 8739 in membranes of the central nervous system (P1/P2 fractions); format: in vivo, mice
Experimental: The fraction P1 containing nuclear and cell membrane components was sedimented for 5 min at 2,500 rpm at 0° C. The supernatant containing the crude synaptosomal fraction was next centrifuged at 13,000 rpm for 30 min to yield a pellet containing the crude synaptosomal fraction (P2). P1 and P2 were then dissolved in BPS, and the amount of label and protein in each fraction was determined.

[13] = 14C-labeled, s.c. injection, mice, 5 minutes after injection
[14] = 14C-labeled 8739 s.c., mice, brain, 30 min

## NCCc1ccc(O)c(O)c1 [Dopamine]
[1]
  brain penetration index (BPI): about 4
  BPI Value (%): 4%
[2]
  changes in open-field activity: No significant changes

## CC(N)Cc1ccccc1 (stereo not drawn) [Amphetamine]
[3]
  time within which tolerance develops: 3 to 15 days
[4]; 3.0 mg/kg i.p.
  AVERAGE ROTATION SCORES (Rotations/minutes) Contralateral: 0.4 Rotations/minutes
  AVERAGE ROTATION SCORES (Rotations/minutes) Ipsilateral: 2.5 Rotations/minutes
[4]; 5.0 mg/kg i.p.
  AVERAGE ROTATION SCORES (Rotations/minutes) Contralateral: 0.92 Rotations/minutes
  AVERAGE ROTATION SCORES (Rotations/minutes) Ipsilateral: 3.32 Rotations/minutes
[4]
  circling behavior (in words): circling rapidly to the ipsilateral lesion side
[5]; 2 mg/kg i.p. daily for 21 days
  decrease in food intake over time: virtually disappeared after 15 days
  tolerance: complete tolerance

## O=C[C@H](O)[C@@H](O)[C@H](O)[C@H](O)CO [D-glucose]
[6]
  BPI Value (%): 33%
  BPI index: 33

## CCC=CCC=CCC=CCC=CCC=CCC=CCCC(=O)O [carrier molecule (T), 4, 7, 10, 13, 16, 19 docosahexa-enoic acid, reference compound]
[2]
  changes in open-field activity: No significant changes
[7]
  swelling of the brain: induce swelling of the brain

## CN1CCc2cccc3c2[C@H]1Cc1ccc(O)c(O)c1-3 [Apomorphine]
[4]; 0.1 mg/kg i.p.
  AVERAGE ROTATION SCORES (Rotations/minutes) Contralateral: 4.8 Rotations/minutes
  AVERAGE ROTATION SCORES (Rotations/minutes) Ipsilateral: 0.1 Rotations/minutes
[4]; 0.5 mg/kg i.p.
  AVERAGE ROTATION SCORES (Rotations/minutes) Contralateral: 13.7 Rotations/minutes
  AVERAGE ROTATION SCORES (Rotations/minutes) Ipsilateral: 0 Rotations/minutes
[4]
  circling behavior (in words): rapid circling behavior to the contralateral side of the lesion

## CCCCCCCCCCCC(=O)NCCc1ccc(O)c(O)c1
[1]
  crossing of the blood brain barrier (in words): does not effectively cross the blood brain barrier
[8]
  activity as an appetite-suppressant (in words): completely inactive

## CCCCCCCCCCCCCCCCCCCCCC(=O)NCCc1ccc(O)c(O)c1
[1]
  crossing of the blood brain barrier (in words): does not effectively cross the blood brain barrier
[8]
  activity as an appetite-suppressant (in words): essentially inactive

## CC/C=C\C/C=C\C/C=C\C/C=C\C/C=C\C/C=C\CCC(=O)NCCc1ccc(O)c(O)c1 [Compound 8739]
[1]; [13]
  Brain (cpm/g): 1305 cpm/g and 1297 cpm/g
  Liver (cpm/g): 4300 cpm/g and 3931 cpm/g
[1]
  BPI Value (%): 30% and 33%
  brain uptake / BPI relative to dopamine: eight times that of dopamine
[1]; listed as compound 8739
  brain uptake / BPI relative to dopamine: over eight-fold higher
[9]
  tolerance: no indication of tolerance
[9]; listed as compound 8739
  tolerance: no tolerance was induced
[8]; oral administration, same experiment
  food consumption, oral administration compared with i.p.: The results were the same
[2]; i.p. injection, mice, 90-min period
  percent decrease in open field activity, test group versus control group: 40-50%
[2]; oral delivery, mice n=6
  decrease in open-field activity: 40-50%
[2]; oral vs. i.p.
  activity when given orally compared with injection: as active when ingested as when injected; also recorded: without any apparent loss in efficacy
[4]; 34 mg/kg i.p.
  AVERAGE ROTATION SCORES (Rotations/minutes) Contralateral: 0.05 Rotations/minutes
  AVERAGE ROTATION SCORES (Rotations/minutes) Ipsilateral: 0.08 Rotations/minutes
[4]; 51 mg/kg i.p.
  AVERAGE ROTATION SCORES (Rotations/minutes) Contralateral: 0.12 Rotations/minutes
  AVERAGE ROTATION SCORES (Rotations/minutes) Ipsilateral: 0.08 Rotations/minutes
[4]
  circling behavior (in words): failed to produce an effect; also recorded: did not evoke this behavior
[4]; listed as compound 8739
  circling behavior (in words): do not result
[5]; 20 mg/kg i.p. daily for 21 days
  tolerance: no tolerance had developed
[10]
  effect on self-stimulation parameters (reward, motor aspect, motivation): no effect on either the reward or the motor aspect; also recorded: do not result
D-1 dopamine receptors
  binding to D-1 dopamine receptors: does not bind
Swelling of the brain
  swelling of the brain: did not induce any swelling
D-2 dopamine receptors
  binding to D-2 dopamine receptors: does not bind
[11]
  effects on motor function or motivation: failed to demonstrate any diverse effects
  stereotypy: failed to induce
[12]; [14]
  P1 (Nuclear and Cell Membrane Fraction), CPM/mg Protein after 30 min of Uptake: 4.19 CPM/mg Protein and 2.7 CPM/mg Protein
  P2/P1: 2.9 and 1.9 and 2.1
[12]; average of the experiments of Table II
  factor by which uptake into P2 was greater than into P1, average: 2.3
